The term Kd denotes the constant that tells how readily two partners part at equilibrium.

Like-named read-outs stand apart in the source and are kept apart here.

The target of data set [1] is T1, IRK1 channels (Mus musculus, UniProt P35561).
T1 construct: expressed in transfected cells; host or cells: Xenopus laevis oocytes injected with IRK1 cRNA; inside-out patches
T1 sequence (P35561 1-428): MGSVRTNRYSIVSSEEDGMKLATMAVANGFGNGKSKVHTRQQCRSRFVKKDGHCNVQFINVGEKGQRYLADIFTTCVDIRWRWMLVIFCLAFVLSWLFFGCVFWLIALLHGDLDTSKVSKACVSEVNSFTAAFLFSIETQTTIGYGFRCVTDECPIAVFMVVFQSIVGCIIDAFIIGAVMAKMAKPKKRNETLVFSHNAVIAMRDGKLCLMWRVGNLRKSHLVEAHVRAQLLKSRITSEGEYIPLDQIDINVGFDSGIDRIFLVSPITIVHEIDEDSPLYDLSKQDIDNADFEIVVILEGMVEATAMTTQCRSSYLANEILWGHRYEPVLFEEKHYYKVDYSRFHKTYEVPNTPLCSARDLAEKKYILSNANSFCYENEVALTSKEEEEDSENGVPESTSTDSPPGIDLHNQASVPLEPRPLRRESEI
As to conditions: 2000b, cited from earlier work.

For data set [2], the target named is T1, IRK1 channels. As to the kind of experiment: Block of IRK1 currents by intracellular chemicals, inside-out patches of Xenopus oocytes injected with IRK1 cRNA. In kind it is cell-based. The note with it: for inward rectification with intracellular metal ion chelator: each at 5 mM, pH 7.6, phosphate buffer. How it is done: IRK1 cDNA (Kubo et al., 1993) was cloned into the pGEM-Hess plasmid (IRK1-pGEMHess construct, provided by J. Yang). RNA was synthesized using T7 polymerase (Promega Corp., Madison, Wis.) from Nhe1-linearized cDNAs. Oocytes harvested from Xenopus laevis (Xenopus One, Ann Arbor, Mich.) were incubated in a solution containing NaCl, 82.5 mM; KCI, 2.5 mM; MgCl2, 1.0 mM; HEPES (pH 7.6), 5.0 mM and collagenase, 2-4 mg/ml. The oocyte preparation was agitated at 80 rpm for 60-90 minutes. It was then rinsed thoroughly and stored in a solution containing NaCl, 96 mM; KCl, 2.5 mM; CaCl2, 1.8 mM; MgCl2, 1.0 mM; HEPES (pH 7.6), 5 mM and gentamicin, 50 μg/ml. Defolliculated oocytes were selected and injected with RNA at least 2 and 16 hours, respectively, after collagenase treatment. All oocytes were stored at 18° C.
(§1) IRK1 currents were recorded from inside-out membrane patches of Xenopus oocytes (injected with IRK1cRNA) with an Axopatch 200B amplifier (Axon Instruments, Inc., Foster City, Calif.), filtered at 5 kHz, and sampled at 25 kHz using an analog-to-digital converter (DigiData 1200, Axon Instruments) interfaced with a personal computer. pClamp6 software (Axon Instruments) was used to control the amplifier and acquire the data. During current recording, the voltage across the membrane patch was first hyperpolarized from the 0 mV holding potential to −100 mV, and then stepped to various test voltages, or stepped directly from the holding potential. […] Background leak current correction was carried out as previously described (Lu and MacKinnon, Nature 371:243-246 (1994); Guo and Lu, 2000a). To effectively perfuse the patch, the tip of the patch pipette (3 MΣ) was immersed in a stream of intracellular solution exiting one of ten glass capillaries (ID=0.2 mm) mounted in parallel.
All recording solutions contained 100 mM K^+ contributed by KCl, K2EDTA, K2HPO4, KH2PO4, and KOH. The phosphate-buffered intracellular solution contained 5 mM K2EDTA (unless specified otherwise), and 10 mM “K2HPO4+KH2PO4” in a ratio yielding the desired pH, and sufficient KCl to bring total K^+ concentration to 100 mM (Guo and Lu, 2000a). The HEPES-buffered intracellular solution, as used in FIG. 3, contained (100 mM K^+ (Cl^−+OH^−), 5 mM EDTA and 10 mM HEPES, pH 7.2 (adjusted with KOH). The HEPES-buffered extracellular solution contained 100 mM K^+ (Cl^−+OH^−), 0.3 mM CaCl2, 1.0 mM MgCl2, and 10 mM HEPES, pH 7.6 (adjusted with KOH). In the phosphate-buffered extracellular solution, HEPES was replaced by an equal concentration of “K2HPO4+KH2PO4” in a ratio yielding pH 7.6. The divalent cation-free extracellular solution contained 5 mM EDTA. All chemicals were purchased from Fluka Chemical Corp.
In all cases the intracellular solutions contained 100 mM K^+, 5 mM EDTA and 10 mM phosphate (pH 7.6) in addition to the tested chemicals, while the extracellular solution contained 100 mM K^+, 0.3 mM Ca^2+, 1 mM Mg^2+, 10 mM phosphate (pH 7.6). The currents were corrected for background current.

Data set [3] addresses T1, IRK1 channels. The experiment in a line: Relaxation/block of inward IRK1 currents by extracellular chemicals, inside-out patches. Type of data set: cell-based. The note with it: 10 mM HEPES, 3 μM HEP or 0.3 μM piperazine. The method, then: as §1
The phosphate-buffered intracellular solution contained 5 mM K2EDTA (unless specified otherwise), and 10 mM “K2HPO4+KH2PO4” in a ratio yielding the desired pH, and sufficient KCl to bring total K^+ concentration to 100 mM (Guo and Lu, 2000a). The HEPES-buffered intracellular solution, as used in FIG. 3, contained (100 mM K^+ (Cl^−+OH^−), 5 mM EDTA and 10 mM HEPES, pH 7.2 (adjusted with KOH). The HEPES-buffered extracellular solution contained 100 mM K^+ (Cl^−+OH^−), 0.3 mM CaCl2, 1.0 mM MgCl2, and 10 mM HEPES, pH 7.6 (adjusted with KOH). In the phosphate-buffered extracellular solution, HEPES was replaced by an equal concentration of “K2HPO4+KH2PO4” in a ratio yielding pH 7.6. The divalent cation-free extracellular solution contained 5 mM EDTA. All chemicals were purchased from Fluka Chemical Corp.
Since solutions in the quoted study were HEPES buffered, currents elicited with the voltage protocol used to produce the data in FIG. 12 were evaluated with no added divalent cations in the extracellular solution to determine whether the current relaxation was due to the use of extracellular HEPES.
The channel block associated with extracellular HEPES was examined to determine whether it could also be caused by residual contaminants. Intra- and extracellular solutions were buffered with 10 mM phosphate. […] The ratio of currents at the end and the beginning of voltage pulses (Iend/Ibgn) was plotted against membrane voltage.

The next data set deals with Kir2.1 (Homo sapiens, UniProt P63252). As to conditions: 100 μM; cited from earlier work.
Another data set concerns the target Kir1.1 (Homo sapiens, UniProt P48048). As to conditions: 100 μM; cited from earlier work.
For the next data set, the target named is Shaker channel (Drosophila melanogaster, UniProt P08510). As to conditions: 100 μM; cited from earlier work.
Data set [4] relates to Kir2.1 (E224 and E299 replaced with neutral ones). As to conditions: 100 μM; cited from earlier work.
The conditions of data set [5]: Goodman & Gilman's; cited from earlier work.
Where [6] appears, read: intracellular blocker, Kd at 0 mV, mean±sem, read-out: Kd (0 mV), fit of the Woodhull equation.

Chain of Kir1.1 (P48048 whole entry): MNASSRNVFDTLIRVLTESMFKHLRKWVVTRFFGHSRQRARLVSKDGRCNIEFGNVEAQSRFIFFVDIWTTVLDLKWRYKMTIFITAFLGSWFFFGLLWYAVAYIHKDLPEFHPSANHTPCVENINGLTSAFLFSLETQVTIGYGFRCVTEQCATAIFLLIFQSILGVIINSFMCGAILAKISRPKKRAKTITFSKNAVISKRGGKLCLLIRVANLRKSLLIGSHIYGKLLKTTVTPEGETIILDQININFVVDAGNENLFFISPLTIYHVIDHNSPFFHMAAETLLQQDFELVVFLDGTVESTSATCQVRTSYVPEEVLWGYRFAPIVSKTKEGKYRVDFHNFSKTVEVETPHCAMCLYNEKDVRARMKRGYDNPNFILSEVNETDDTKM
Chain of Kir2.1 (P63252 whole entry): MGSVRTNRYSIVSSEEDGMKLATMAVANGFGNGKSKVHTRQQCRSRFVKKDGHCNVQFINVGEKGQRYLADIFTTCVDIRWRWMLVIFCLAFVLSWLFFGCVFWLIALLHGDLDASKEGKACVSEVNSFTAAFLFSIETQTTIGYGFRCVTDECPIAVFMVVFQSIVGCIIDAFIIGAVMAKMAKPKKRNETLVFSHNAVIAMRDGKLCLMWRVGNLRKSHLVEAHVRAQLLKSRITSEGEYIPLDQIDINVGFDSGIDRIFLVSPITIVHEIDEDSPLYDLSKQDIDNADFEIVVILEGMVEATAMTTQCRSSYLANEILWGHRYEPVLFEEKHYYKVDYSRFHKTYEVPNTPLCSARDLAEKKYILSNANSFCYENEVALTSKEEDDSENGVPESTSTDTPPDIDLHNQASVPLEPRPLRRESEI
Chain of Shaker channel (P08510 whole entry): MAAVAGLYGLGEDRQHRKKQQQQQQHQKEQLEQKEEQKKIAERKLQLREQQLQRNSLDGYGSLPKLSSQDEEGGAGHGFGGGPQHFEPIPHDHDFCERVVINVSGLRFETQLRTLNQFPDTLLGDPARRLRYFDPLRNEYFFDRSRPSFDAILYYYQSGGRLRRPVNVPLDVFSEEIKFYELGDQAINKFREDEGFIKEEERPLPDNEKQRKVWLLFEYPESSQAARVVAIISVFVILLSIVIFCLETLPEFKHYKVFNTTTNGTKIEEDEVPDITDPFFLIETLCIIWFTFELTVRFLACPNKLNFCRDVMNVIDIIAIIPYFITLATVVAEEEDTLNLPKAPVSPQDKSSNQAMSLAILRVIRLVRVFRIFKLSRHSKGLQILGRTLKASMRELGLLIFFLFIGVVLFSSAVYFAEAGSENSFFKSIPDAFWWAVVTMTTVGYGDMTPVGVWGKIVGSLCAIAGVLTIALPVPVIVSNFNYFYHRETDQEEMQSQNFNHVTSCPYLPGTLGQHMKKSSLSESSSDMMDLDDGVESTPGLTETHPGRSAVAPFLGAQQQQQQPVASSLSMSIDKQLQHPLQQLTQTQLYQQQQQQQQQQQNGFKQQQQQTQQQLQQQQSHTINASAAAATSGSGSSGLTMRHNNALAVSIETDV

As to `NCCCNCCCCNCCCN` [spermine], the “effective valence of channel block” value at IRK1 channels [1] (Guo and Lu 2000a) is on record as approximately 5. The Kd at IRK1 channels [1] (Guo and Lu 2000a, read-out: Kd (0 mV) for binding of fully protonated spermine) is approximately 0.1 µM.

Turning to `OCCN1CCNCC1` [HEP, hydroxyethyl piperazine], the “relative potency of channel block (qualitative)” value on IRK1 channels [2] (10 mM HEPES, 3 μM HEP, 0.3 μM piperazine, intracellular) was “much more potent”. Besides, the “Z (valence), fit of the Woodhull equation” value (“Z (valence), fit” below) at IRK1 channels [2] (intracellular blocker) was 1.09±0.03. The Kd on IRK1 channels [2] (setting [6]) was 2970 ± 160 µM. The “inward current relaxation / channel block by extracellular chemical” value on IRK1 channels [3] (20 mM extracellular K+) is given as “blocked the channels”.

On to `O=C(O)CN(CCN(CC(=O)O)CC(=O)O)CC(=O)O` [EDTA, ethylene diamine tetraacetic acid], for which the “inward rectification with intracellular metal ion chelator” value (“inward rectification” below) at IRK1 channels [2] is reported as “least rectification”.

With `C1CNCCN1` [piperazine], at IRK1 channels [2] (intracellular blocker), the “Z (valence), fit” value amounted to 1.08±0.02. The Kd at IRK1 channels [2] (setting [6]) is 270 ± 40 µM. The “inward current relaxation / channel block by extracellular chemical” value at IRK1 channels [3] (20 mM extracellular K+) is recorded as “blocked the channels”. Besides, the “inhibition of Kir2.1” value at Kir2.1 is listed as “dramatically inhibits”. Moreover, the “effect on Kir1.1” value at Kir1.1 was “no effects”. For the same molecule, on Shaker channel, the “effect on Shaker channel” value is reported as “no effects”. In addition, the “sensitivity of mutant Kir2.1” value in data set [4] was “practically insensitive”. In data set [5], the “adverse effects attending use” value is “Occasional gastrointestinal upset, transient neurological effects, and urticarial reaction”; the “laboratory studies on patients receiving treatment for several days” value is listed as “no abnormality”; the use during pregnancy result is listed as “without ill effect”.

Consider `[Mg+2]` [Mg^2+], for which the Kd on IRK1 channels [2] (intracellular Mg2+, FIG. 7B, read-out: Kd (0 mV), fit of the Woodhull equation to the Mg2+-inhibition curve) was 17 µM. For the same molecule, the “Z (valence), fit” value at IRK1 channels [2] (intracellular blocker) was found to be 1.1.

`O=S(=O)(O)CCN1CCN(CCO)CC1` [HEPES, 4-(2 hydroxyethyl)-1-piperazineethanesulfonic acid]: at IRK1 channels [2] (intracellular blocker), the “Z (valence), fit” value worked out at 1.02±0.02. Besides, the “inward current relaxation / channel block by extracellular chemical” value on IRK1 channels [3] (20 mM extracellular K+) was “prominent inward current relaxation”; at IRK1 channels [3] (100 mM extracellular K+), “little or no relaxation”.

`O=C(O)CN(CCOCCOCCN(CC(=O)O)CC(=O)O)CC(=O)O` [EGTA, ethylene glycol bis(β-aminoethyl ether) N,N,N′,N′-tetraacetic acid]: the “inward rectification” value on IRK1 channels [2] was “more pronounced”.

On to `O=C(O)CN(CC(=O)O)C1CCCCC1N(CC(=O)O)CC(=O)O` (stereo not drawn) [CDTA, cyclohexane 1,2-diaminetetraacetic acid], for which, on IRK1 channels [2], the “inward rectification” value was “more pronounced”.

On to `NCCN` [ethylenediamine], for which the “potency of channel block relative to EDTA” value at IRK1 channels [2] (0.1 μM ethylenediamine versus 30 mM EDTA, intracellular) is > 10,000 fold. Further, the “Z (valence)” value at IRK1 channels [1] (Guo and Lu) is recorded as 2. Moreover, the Kd on IRK1 channels [1] (Guo and Lu, read-out: Kd (0 mV)) is 1400 µM.

The values are drawn from patent publication US20040048369A1, “Control of inward-rectifier K+ ion channels” (priority 2002, published 2004).
